Converted amounts (≈) assume the structure as drawn. Read-outs that look alike come from different tables or passages of the source.
How the values were obtained:
[1] = system: hot plate pain threshold in ICR mice; experiment: hot plate method, compound 1, intravenous administration; format: in vivo; details: for Pain threshold before administration: baseline; for Pain threshold before administration / Pain threshold after administration: X ± SD
Method: 20 ICR mice, 18-22 g, half male and half male, were purchased from the animal room of Xi′an Jiaotong University School of Medicine; rearing conditions: room temperature 18-20° C., same sex rearing in separate cages, 12-hour light, regular ventilation, conventional full-price solid feed feeding, bedding changed every two days; 20 mice were randomly divided into 2 groups (low-dose test drug group, test drug high-dose group) with 10 mice in each group (5 ♀5).
An appropriate amount of compound 1 was accurately weighed and dissolved in 0.9% physiological saline to prepare a concentration of 5 mg/ml (dissolved state is good, basically transparent), which was used as a mother solution. During the test, according to the test requirements, diluted with normal saline to an appropriate concentration.
The first group was the low-dose test drug group, and the test drug was given 10 mg/kg by tail vein injection; the second group was the test drug high-dose group, and the test drug was given 15 mg/kg by tail vein injection.
(§1) The mice were placed in a hot plate apparatus at a temperature of 55±0.5° C., and the pain thresholds of the mice were measured and recorded before administration, 30 minutes after administration, 60 minutes after administration, and 120 minutes after administration.

[2] = system: hot plate pain threshold in mice; experiment: hot plate method, compound 1, intragastric administration; format: in vivo; details: for Pain response time Before administration: baseline, n 10; for Pain response time Before administration / Pain response time After administration: X ± SD; for Pain response time After administration / Pain response time extension rate: 60 min after administration; for Pain response time extension rate: blank group 3.9 ± 6.6
Method: All the mice participating in the experiment were subjected to hot plate pain threshold detection before the experiment, and qualified mice with pain threshold of 10-40 s were screened.
Accurately weigh an appropriate amount of compound 1, dissolve it in distilled water and prepare a mother liquor of 100 mg/ml, then dilute to 1.25 mg/ml (25 mg/kg), 2.5 mg/ml (50 mg/kg) with double distilled water respectively; accurately weigh an appropriate amount of the positive control drug gabapentin, dissolve in distilled water and prepare a 100 mg/ml mother solution, and then dilute to 10 mg/ml (200 mg/kg) with double distilled water. All medicines are prepared and utilized as needed.
40 only qualified mice were divided into 4 groups, half male and half female in each group. The first group is the blank group, no administration; the second group is the positive control (gabapentin) 25 mg/kg group; the third group is the test drug 25 mg/kg group; the fourth group is the test drug 50 mg/kg group 4. All were administered by gavage.
The mice were placed in a hot plate apparatus at a temperature of 55±0.5° C., and the pain thresholds of the mice were measured and recorded before administration and 60 min after administration.

[3] = water solubility experiments; format: physicochemical
[4] = physchem
[5] = system: hot plate pain threshold in ICR mice; experiment: hot plate method, compound 2, intravenous administration; format: in vivo; details: for Pain threshold before administration: baseline; for Pain threshold before administration / Pain threshold after administration: X ± SD
Method: 20 ICR mice, 18-22 g, half male and half male, were purchased from the animal room of Xi′an Jiaotong University School of Medicine; rearing conditions: room temperature 18-20° C., same-sex cages, 12-hour light, regular ventilation, conventional full-price solid feed feeding, and the bedding was changed every two days; 20 mice were randomly divided into 2 groups (low-dose test drug group, test drug high-dose group), 10 mice in each group […].
An appropriate amount of compound 2 was accurately weighed and dissolved in 5% glucose water to prepare a concentration of 2 mg/ml (dissolved state is good, basically transparent), which was utilized as a mother solution. During the test, according to the test requirements, it was diluted with 5% glucose aqueous solution to an appropriate concentration.
The first group was the high-dose test drug group, and the test drug was given 10 mg/kg by tail vein injection; the second group was the low-dose test drug group, and the test drug was given 3 mg/kg by tail vein injection.
as §1

[6] = system: convulsions in mice induced by electrical stimulation; experiment: anticonvulsant effect on mice induced by electrical stimulation; format: in vivo
Method: (1) Divide 40 mice (20♀20) into 5 groups at random, with 8 mice (4♀4) in each group, and label No. 1 to No. 8 with picric acid respectively; (2) All mice were tested according to the order of groups and labels electrical stimulation, the initial voltage was 40V, the voltage was increased by 2.5V each time, the time interval between two electrical stimulations for the same mouse was 20 min, the threshold voltage value of convulsion and the time from convulsion to complete recovery were recorded, and the dead mice were discarded, qualified mice were screened; (3) After screening, 7 mice (2♀5) in the 40 mice could not recover after convulsions and died, and the remaining 33 qualified mice […]; (4) From standby 7 mice were screened out as a supplement, and the number of the dead mice in step (2) was marked with picric acid and added to the corresponding groups, so that a total of 40 (20♀20) qualified mice in 5 groups were finally obtained., all mice were weighed and recorded.
Positive drug: sodium valproate (specification 0.2 g), take 1 tablet in a mortar, add 20 ml of 0.5% CMC-Na solution while grinding, to a suspended state, set EP tube for use; test drug (compound 5): Dissolve in distilled water to 5, 10, and 20 mg/ml solutions, respectively, and set EP tubes for later use.
Electrical stimulation was performed 1.5 hours after the last administration, and each mouse was given the threshold voltage measured before to observe the experimental phenomenon and record whether there was convulsions and death occurred.
The first group was the blank control group, which was given 0.4 ml/20 g of 0.5% CMC-Na by gavage; the second group was the positive drug control group, which was given sodium valproate 200 mg/kg by gavage; the third group was the test drug the low-dose group, which was given 100 mg/kg of compound 5 by gavage; the fourth group was the test drug medium-dose group, which was given 200 mg/kg of compound 5 by gavage; the fifth group was the test drug high-dose group, which was given 400 mg/kg of compound 5 by gavage.
1.5 h after the last administration, electrical stimulation was performed according to the threshold voltage measured before each mouse, the experimental phenomenon was observed, and the occurrence of convulsions and death were recorded. If convulsion occurs, record the time of complete recovery; if no convulsion occurs, continue to increase the voltage with a gradient of 2.5V to measure the current threshold voltage value and recovery time.
Strictly follow the 5 periods of convulsion in mice, namely, latency period, rigid flexion period, hindlimb extension period, clonic period and recovery period to judge whether the mice have convulsions after electrical stimulation, and the phenomenon of death can not be recovered after convulsions.

[7] = 10 mg/kg tail vein group, hot plate 55±0.5° C.

Question: For `CC(C)c1cccc(C(C)C)c1OC(=O)CC1(CN)CCCCC1.Cl` [Compound 1, 2,6-diisopropylphenyl 2-(1-(aminomethyl)cyclohexyl)acetate hydrochloride], which “Pain threshold before administration” value [1, 7] is on record?
Answer: The value was 8.92 ± 3.05 s.

Question: And the “Pain threshold after administration” value ([1]; 10 mg/kg tail vein, 30 min)?
Answer: Its value is 17.09 ± 6.05 s.

Question: What about the “Pain threshold after administration” value ([1]; 10 mg/kg tail vein, 60 min) of the same compound?
Answer: The value was 16.96 ± 6.13 s.

Question: What about the “Pain threshold after administration” value ([1]; 10 mg/kg tail vein, 120 min) of the same compound?
Answer: The value was 12.36 ± 5.75 s.

Question: And the “Pain threshold before administration” value ([1]; 15 mg/kg tail vein group)?
Answer: Its value is 10.90 ± 3.72 s.

Question: What about the “Pain threshold after administration” value ([1]; 15 mg/kg tail vein, 30 min) of the same compound?
Answer: The value was 18.88 ± 6.06 s.

Question: What about the “Pain threshold after administration” value ([1]; 15 mg/kg tail vein, 60 min) of the same compound?
Answer: The value was 13.49 ± 6.53 s.

Question: What about the “Pain threshold after administration” value ([1]; 15 mg/kg tail vein, 120 min) of the same compound?
Answer: The value was 6.47 ± 5.40 s.

Question: And the “analgesic effect in the hot plate test” value ([1]; intravenous 10 and 15 mg/kg, 10 mg/kg best, good within 30-60 minutes after injection)?
Answer: The value was “good analgesic effect”.

Question: And the “Pain response time Before administration” value ([2]; 25 mg/kg gavage group)?
Answer: Its value is 22.0 ± 10.2 s.

Question: And the “Pain response time After administration” value ([2]; 25 mg/kg gavage)?
Answer: The value was 32.1 ± 14.5 s.

Question: What about the “Pain response time extension rate” value ([2]; 25 mg/kg gavage) of the same compound?
Answer: The value was 59.3 ± 66.7 %.

Question: And the “Pain response time Before administration” value ([2]; 50 mg/kg gavage group)?
Answer: Its value is 20.0 ± 5.9 s.

Question: And the “Pain response time After administration” value ([2]; 50 mg/kg gavage)?
Answer: Its value is 40.2 ± 17.9 s.

Question: And the “Pain response time extension rate” value ([2]; 50 mg/kg gavage)?
Answer: Its value is 100.0 ± 91.1 %.

Question: And the “analgesic effect, hot plate, gavage” value ([2]; 25 and 50 mg/kg gavage, comparable to gabapentin)?
Answer: The value was “can prolong the reaction time of hot plate pain”.

Question: And the solubility [3]?
Answer: Its solubility is 18000 µg/mL.

Question: What about the logP [4] of the same compound?
Answer: Its logP is 1.1.

Question: With `CC(C)c1cc(I)cc(C(C)C)c1OC(=O)CC1(CN)CCCCC1.Cl` [Compound 2, 4-iodo-2,6-diisopropylphenyl 2-(1-(aminomethyl)cyclohexyl)acetate hydrochloride] as the compound, how does the solubility [3] read?
Answer: Its solubility is 13000 µg/mL.

Question: And the “Pain threshold before administration” value ([5]; 3 mg/kg tail vein group)?
Answer: Its value is 11.33 ± 4.08 s.

Question: And the “Pain threshold after administration” value ([5]; 3 mg/kg tail vein, 30 min)?
Answer: Its value is 12.41 ± 3.67 s.

Question: And the “Pain threshold after administration” value ([5]; 3 mg/kg tail vein, 60 min)?
Answer: The value was 10.16 ± 3.38 s.

Question: What about the “Pain threshold after administration” value ([5]; 3 mg/kg tail vein, 120 min) of the same compound?
Answer: The value was 6.47 ± 5.40 s.

Question: What about the “Pain threshold before administration” value [5, 7] of the same compound?
Answer: Its value is 13.18 ± 3.33 s.

Question: And the “Pain threshold after administration” value ([5]; 10 mg/kg tail vein, 30 min)?
Answer: Its value is 18.10 ± 5.96 s.

Question: What about the “Pain threshold after administration” value ([5]; 10 mg/kg tail vein, 60 min) of the same compound?
Answer: Its value is 13.98 ± 6.78 s.

Question: What about the “Pain threshold after administration” value ([5]; 10 mg/kg tail vein, 120 min) of the same compound?
Answer: The value was 14.18 ± 6.90 s.

Question: What about the “analgesic effect in the hot plate test” value ([5]; intravenous, at 10 mg/kg performed well 30 minutes after injection) of the same compound?
Answer: Its value is “good analgesic effect”.

Question: And the logP [4]?
Answer: The logP was 1.66.

Question: With `CC(C)c1cccc(C(C)C)c1OC(=O)NCC1(CC(=O)O)CCCCC1` [Compound 3] as the compound, how does the solubility [3] read?
Answer: The solubility was 80 µg/mL (≈ 213 µM).

Question: And the logP [4]?
Answer: Its logP is 2.38.

Question: With `CC(C)c1cc(I)cc(C(C)C)c1OC(=O)NCC1(CC(=O)O)CCCCC1` [Compound 4] as the compound, how does the solubility [3] read?
Answer: The solubility was 40 µg/mL (≈ 79.8 µM).

Question: What about the logP [4] of the same compound?
Answer: The logP was 3.52.

Question: With `CC(C)c1cccc(C(C)C)c1OC(=O)CC1(C[N+](C)(C)C)CCCCC1` [Compound 6, (1-(2-(2,6-diisopropylphenoxy)-2-oxoethyl)cyclohexyl)-N,N,N-tri-methylmethanaminium iodide] as the compound, how does the solubility [3] read?
Answer: The solubility was 900 µg/mL.

Question: What about the logP ([4]; fat/water partition (phases not further specified)) of the same compound?
Answer: Its logP is 1.54.

Question: Which results are given for `CCCC(CCC)C(=O)[O-].[Na+]` [sodium valproate, reference compound]?
Answer: anti-electrical convulsion ability (threshold voltage increase) ([6]; compared with blank group, sodium valproate 200 mg/kg gavage, 1.5 h after last administration, p<0.05): significantly improve; weight gain of mice ([6]; mouse, in vivo): no difference
